Test results published in US5368775A, “Corrosion control composition and method for boiler/condensate steam system” (priority 1993, dated 1994).
Where two headings read alike, the source gives them in different places.

Experiments:
[1] = cited from earlier work
[2] = Low pressure (175 psig) package boiler study of DEAE and DMAPA (Table IV); settings: for Feedwater concentration / Steam concentration: 175 psig boiler
Experimental: A study of the effects of a relatively low pressure boiler on DEAE and DMAPA was undertaken. The study was conducted in a 175 psig package boiler. The boiler was operated at 41 cycles with no condensate return so that the amine present in the steam could only come from the feedwater and not from the return of condensate. DEAE and DMAPA were-fed simultaneously at 50 ppm to the feedwater. The boiler was operated overnight to allow the system to equilibrate. […] The concentrations were determined by gas chromatography.

[3] = Lab scale test boiler, DMAPA feed, formation of DMA and TMA in feedwater (GC), 1,450 psig; format: physicochemical; settings: for Feedwater composition: feedwater initially 200 ppm DMAPA; for Feedwater conductivity / Feedwater pH: DMAPA feed
From the text: The following lab scale experiment verified the formation of DMA and TMA.
A research scale, electrically heated test boiler was charged with nitrogen sparged (a mechanical deaeration), demineralized water. The water was supplied by high pressure pump to a D-configuration stainless steel boiler having an internal volume of approximately 5 liters. Two 4000 watt Incoloy 800 resistance heaters produced a steam rate of approximately 17 lbs/hr at a steam pressure of 1,450 psig (correspond to a temperature of 593° F.).
Cycles of concentration were held at approximately 15 by controlling boiler blowdown rate to 1.1 lbs/hr. The saturated steam produced was routed back into the feed tank and mixed with the original feedwater. This follows common industry practice where for economy the maximum amount of condensate is returned to the boiler as feedwater. The feedwater initially contained 200 ppm of DMAPA (Aldrich 99%) and 1.4 ppm hydrazine for deaeration. The feedwater (to which the condensed steam was recycled) was analyzed by gas chromatography and DMA and TMA were quantitated by comparison to external standards.

[4] = as above; format: physicochemical
[5] = Table I properties of amines: basicity, distribution ratios, flash point; format: physicochemical
From the text: The preferred relatively high molecular weight amine of the present invention is dimethylaminopropylamine (DMAPA) or N,N-dimethyl-1,3-propanediamine. […] When DMAPA is subjected to common boiler temperatures and pressures of from 100, and preferably over 200, to 1500 psig, the DMAPA will partially decompose. The partial decomposition of DMAPA forms DMA and TMA.

[6] = Research boiler decomposition, 200 to 600 psig (FIG. 1); format: physicochemical; settings: virtually any pressure, especially above about 200 psig
From the text: Additional testing in a research boiler was undertaken at pressures of from 200 to 600 psig in 100 psig steps. The high molecular weight amines tested included DMAPA, DEAE and MOPA. The boiler system was operated at 100% condensate return at 15 cycles. Feed tank, steam and blowdown samples were taken at the end of each run and analyzed by gas chromatograph (GC).
A condensate modeling system was used to simulate the boiler runs and estimate. The theoretical steam concentration possible if no amine decomposition occurred. Using the theoretical concentration and the analytical value obtained from GC analysis, the percent decomposition was calculated and the results summarized in FIG. 1.

[7] = Decomposition of feed amine at boiler conditions from steam concentration (Table III)
Experimental: The effects of common boiler/condensate temperature and pressure on relatively high molecular weight amine was studied. The relatively high molecular weight amines methoxypropylamine (MOPA) and DMAPA were exposed to boiler condition and the steam concentrations of the feed amines measured. From this information the percent decomposition was calculated.

[8] = Additional testing of decomposition products of high molecular weight amines; format: physicochemical; settings: for formation from DMAPA: additional testing with DMAPA
[9] = cited from earlier work; remark: listed apart in the source

CCNCC [DEA, diethylamine]
Distribution ratio ([1]; at 1000 psig): 28

CCN(CC)CCO [DEAE, diethylaminoethanol]
hydrothermal stability ([2]; lower saturation pressures of this test (175 psig boiler)): hydrothermally stable

CNC [DMA, dimethylamine]
Feedwater composition ([3]; 22 hrs., sample 12): 5 ppm | Feedwater composition ([3]; 46 hrs., sample 13): 11 ppm | Feedwater composition ([3]; 79 hrs., sample 14): 20 ppm | Feedwater composition ([3]; 94 hrs., sample 15): 25 ppm | pKa [1]: 10.77 | Distribution ratio (DR) ([1]; pressure not stated): 2-5 | volatility relative to DMAPA [4]: significantly more volatile than DMAPA | Flash Pt. [5]: 60 °F | Distribution ratio ([5]; 100 psig): 2.4 | Distribution ratio ([5]; 200 psig): 2.1 | Distribution ratio ([5]; 600 psig): 3.3 | Basicity (pKa) ([5]; single or first pKa): 10.8

CN(C)CCCN [DMAPA, N,N-dimethyl-1,3-propanediamine]
concentration of DMA and TMA with time on DMAPA addition ([3]; 22 to 94 hrs.): steadily increasing concentration of DMA and TMA with time | Feedwater conductivity ([3]; 22 hrs.): 160 uS | Feedwater pH ([3]; 22 hrs.): 10.35 | Feedwater conductivity ([3]; 46 hrs.): 195 uS | Feedwater pH ([3]; 46 hrs.): 10.40 | Feedwater conductivity ([3]; 79 hrs.): 200 uS | Feedwater pH ([3]; 79 hrs.): 10.65 | Feedwater conductivity ([3]; 94 hrs.): 230 uS | Feedwater pH ([3]; 94 hrs.): 10.35 | Feedwater concentration ([2]; time 1): 44 ppm | Steam concentration ([2]; time 1): 42 ppm | Feedwater concentration ([2]; time 2): 44 ppm | Steam concentration ([2]; time 2): 42 ppm | Feedwater concentration ([2]; time 3): 45 ppm | Steam concentration ([2]; time 3): 42 ppm | Feedwater concentration ([2]; time 4): 44 ppm | Steam concentration ([2]; time 4): 42 ppm | Feedwater concentration ([2]; time 5): 46 ppm | Steam concentration ([2]; time 5): 42 ppm | Feedwater concentration ([2]; time 6): 44 ppm | Steam concentration ([2]; time 6): 42 ppm | Feedwater concentration ([2]; time 7): 38 ppm | Steam concentration ([2]; time 7): 40 ppm | decomposition compared to MOPA [6]: significantly higher than MOPA | Flash Pt. [5]: 84 °F | Distribution ratio ([5]; 100 psig): 1.1 | Distribution ratio ([5]; 200 psig): 1.9 | Distribution ratio ([5]; 600 psig): 2.0 | pKa ([5]; second of two pKa values, read-out: Basicity (pKa), second value): 8.2 | pKa ([5]; single or first pKa, read-out: Basicity (pKa)): 10 | Steam concentration ([7]; 200 psig, feedwater 106 ppm): 98.4 ppm | Steam concentration ([7]; 600 psig, feedwater 106 ppm): 78.8 ppm | Steam concentration ([7]; 900 psig, feedwater 106 ppm): 68.7 ppm | Steam concentration ([7]; 1450 psig, feedwater 106 ppm): 37.3 ppm

CN [MA, methylamine]
formation from DMAPA [8]: confirmed

COCCCN [MOPA, methoxypropylamine]
decomposition at boiler conditions ([8]; temperature and pressure common to a typical boiler/condensate steam system): do not decompose | stability at boiler conditions ([7]; 1500 psig): essentially stable | % Decomposition ([7]; 1500 psig, feedwater 61 ppm): 4.9% | Steam concentration ([7]; 1500 psig, feedwater 61 ppm): 58 ppm | % Decomposition ([7]; 2500 psig, feedwater 61 ppm): 24.6% | Steam concentration ([7]; 2500 psig, feedwater 61 ppm): 46 ppm

C1COCCN1 [Morpholine]
Distribution ratio ([9]; at atmospheric pressure): 0.4

CN(C)C [TMA, trimethylamine]
Feedwater composition ([3]; 22 hrs., sample 12): 9 ppm | Feedwater composition ([3]; 46 hrs., sample 13): 16 ppm | Feedwater composition ([3]; 79 hrs., sample 14): 25 ppm | Feedwater composition ([3]; 94 hrs., sample 15): 32 ppm | times more volatile than cyclohexylamine ([1]; at boiler pressures from 100 to 1500 psig): 2-5 times | volatility relative to DMAPA [4]: significantly more volatile than DMAPA | Flash Pt. [5]: 20 °F

N [ammonia]
Distribution ratio ([9]; at atmospheric pressure): 10.0

O=C=O [carbon dioxide]
Distribution ratio ([9]; depending upon temperature): ≥ 100

NC1CCCCC1 [cyclohexylamine]
Distribution ratio ([9]; at atmospheric pressure): 4.0

CC(O)CN(C)C (centres unmarked) [dimethylisopropanol amine]
Distribution ratio ([9]; at atmospheric pressure): 1.7

dimethylaminopropanol [DMAP]
formation from DMAPA [8]: confirmed
